Laboratory results as given in article PMC11446596 (Critical Care Explorations, 2024).
Where two headings read alike, the source gives them in different places.

How the values were obtained:
[1] = critically ill children; cited from earlier work
[2] = median / average of model-predicted half-life; PICU children
[3] = design: species or system human; settings: for Trough Vancomycin Concentration achieving AUC24/MIC = 400: regression equation
[4] = AUC24 regression equation, 365 troughs, 238 subjects

## CN[C@H](CC(C)C)C(=O)N[C@H]1C(=O)N[C@@H](CC(N)=O)C(=O)N[C@H]2C(=O)N[C@H]3C(=O)N[C@H](C(=O)N[C@H](C(=O)O)c4cc(O)cc(O)c4-c4cc3ccc4O)[C@H](O)c3ccc(c(Cl)c3)Oc3cc2cc(c3O[C@@H]2O[C@H](CO)[C@@H](O)[C@H](O)[C@H]2O[C@H]2C[C@](C)(N)[C@H](O)[C@H](C)O2)Oc2ccc(cc2Cl)[C@H]1O [vancomycin]
[1]
  Vc reported by Downes et al: 2.59 L
  Vp reported by Downes et al: 5.74 L
[2]
  half-life (model-predicted, terminal): 6 h
[3]; 15 mg/kg q6h, body weight 10 kg, MIC = 0.5 μg/mL
  Trough Vancomycin Concentration achieving AUC24/MIC = 400: 1.8 µg/mL
[3]; 15 mg/kg q6h, body weight 10 kg, MIC = 1 μg/mL
  Trough Vancomycin Concentration achieving AUC24/MIC = 400: 7.4 µg/mL
[3]; 15 mg/kg q6h, body weight 10 kg, MIC = 2 μg/mL
  Trough Vancomycin Concentration achieving AUC24/MIC = 400: 29.9 µg/mL
[3]; 15 mg/kg q6h, body weight 20 kg, MIC = 0.5 μg/mL
  Trough Vancomycin Concentration achieving AUC24/MIC = 400: 1.7 µg/mL
[3]; 15 mg/kg q6h, body weight 20 kg, MIC = 1 μg/mL
  Trough Vancomycin Concentration achieving AUC24/MIC = 400: 6.9 µg/mL
[3]; 15 mg/kg q6h, body weight 20 kg, MIC = 2 μg/mL
  Trough Vancomycin Concentration achieving AUC24/MIC = 400: 28.0 µg/mL
[3]; 15 mg/kg q6h, body weight 40 kg, MIC = 0.5 μg/mL
  Trough Vancomycin Concentration achieving AUC24/MIC = 400: 1.5 µg/mL
[3]; 15 mg/kg q6h, body weight 40 kg, MIC = 1 μg/mL
  Trough Vancomycin Concentration achieving AUC24/MIC = 400: 6.1 µg/mL
[3]; 15 mg/kg q6h, body weight 40 kg, MIC = 2 μg/mL
  Trough Vancomycin Concentration achieving AUC24/MIC = 400: 24.6 µg/mL
[3]; 15 mg/kg q8h, body weight 10 kg, MIC = 0.5 μg/mL
  Trough Vancomycin Concentration achieving AUC24/MIC = 400: 2.5 µg/mL
[3]; 15 mg/kg q8h, body weight 10 kg, MIC = 1 μg/mL
  Trough Vancomycin Concentration achieving AUC24/MIC = 400: 10.0 µg/mL
[3]; 15 mg/kg q8h, body weight 10 kg, MIC = 2 μg/mL
  Trough Vancomycin Concentration achieving AUC24/MIC = 400: 40.7 µg/mL
[3]; 15 mg/kg q8h, body weight 20 kg, MIC = 0.5 μg/mL
  Trough Vancomycin Concentration achieving AUC24/MIC = 400: 2.3 µg/mL
[3]; 15 mg/kg q8h, body weight 20 kg, MIC = 1 μg/mL
  Trough Vancomycin Concentration achieving AUC24/MIC = 400: 9.3 µg/mL
[3]; 15 mg/kg q8h, body weight 20 kg, MIC = 2 μg/mL
  Trough Vancomycin Concentration achieving AUC24/MIC = 400: 37.6 µg/mL
[3]; 15 mg/kg q8h, body weight 40 kg, MIC = 0.5 μg/mL
  Trough Vancomycin Concentration achieving AUC24/MIC = 400: 2.0 µg/mL
[3]; 15 mg/kg q8h, body weight 40 kg, MIC = 1 μg/mL
  Trough Vancomycin Concentration achieving AUC24/MIC = 400: 8.0 µg/mL
[3]; 15 mg/kg q8h, body weight 40 kg, MIC = 2 μg/mL
  Trough Vancomycin Concentration achieving AUC24/MIC = 400: 32.4 µg/mL
[3]; 20 mg/kg q6h, body weight 10 kg, MIC = 0.5 μg/mL
  Trough Vancomycin Concentration achieving AUC24/MIC = 400: 1.8 µg/mL
[3]; 20 mg/kg q6h, body weight 10 kg, MIC = 1 μg/mL
  Trough Vancomycin Concentration achieving AUC24/MIC = 400: 7.2 µg/mL
[3]; 20 mg/kg q6h, body weight 10 kg, MIC = 2 μg/mL
  Trough Vancomycin Concentration achieving AUC24/MIC = 400: 29.3 µg/mL
[3]; 20 mg/kg q6h, body weight 20 kg, MIC = 0.5 μg/mL
  Trough Vancomycin Concentration achieving AUC24/MIC = 400: 1.6 µg/mL
[3]; 20 mg/kg q6h, body weight 20 kg, MIC = 1 μg/mL
  Trough Vancomycin Concentration achieving AUC24/MIC = 400: 6.6 µg/mL
[3]; 20 mg/kg q6h, body weight 20 kg, MIC = 2 μg/mL
  Trough Vancomycin Concentration achieving AUC24/MIC = 400: 26.8 µg/mL
[3]; 20 mg/kg q6h, body weight 40 kg, MIC = 0.5 μg/mL
  Trough Vancomycin Concentration achieving AUC24/MIC = 400: 1.4 µg/mL
[3]; 20 mg/kg q6h, body weight 40 kg, MIC = 1 μg/mL
  Trough Vancomycin Concentration achieving AUC24/MIC = 400: 5.6 µg/mL
[3]; 20 mg/kg q6h, body weight 40 kg, MIC = 2 μg/mL
  Trough Vancomycin Concentration achieving AUC24/MIC = 400: 22.6 µg/mL
[3]; 30 mg/kg q8h, body weight 10 kg, MIC = 0.5 μg/mL
  Trough Vancomycin Concentration achieving AUC24/MIC = 400: 2.3 µg/mL
[3]; 30 mg/kg q8h, body weight 10 kg, MIC = 1 μg/mL
  Trough Vancomycin Concentration achieving AUC24/MIC = 400: 9.3 µg/mL
[3]; 30 mg/kg q8h, body weight 10 kg, MIC = 2 μg/mL
  Trough Vancomycin Concentration achieving AUC24/MIC = 400: 37.6 µg/mL
[3]; 30 mg/kg q8h, body weight 20 kg, MIC = 0.5 μg/mL
  Trough Vancomycin Concentration achieving AUC24/MIC = 400: 2.0 µg/mL
[3]; 30 mg/kg q8h, body weight 20 kg, MIC = 1 μg/mL
  Trough Vancomycin Concentration achieving AUC24/MIC = 400: 8.0 µg/mL
[3]; 30 mg/kg q8h, body weight 20 kg, MIC = 2 μg/mL
  Trough Vancomycin Concentration achieving AUC24/MIC = 400: 32.4 µg/mL
[3]; 30 mg/kg q8h, body weight 40 kg, MIC = 0.5 μg/mL
  Trough Vancomycin Concentration achieving AUC24/MIC = 400: 1.5 µg/mL
[3]; 30 mg/kg q8h, body weight 40 kg, MIC = 1 μg/mL
  Trough Vancomycin Concentration achieving AUC24/MIC = 400: 6.1 µg/mL
[3]; 30 mg/kg q8h, body weight 40 kg, MIC = 2 μg/mL
  Trough Vancomycin Concentration achieving AUC24/MIC = 400: 24.7 µg/mL
[3]; AUC24 regression equation, (Ctr/7)^x, 365 troughs, 238 subjects
  Exponent of trough concentration: 0.495
[3]; [4]
  Additive shift for dose frequency < 8 hours: 54.9
  Slope of (DOSE [mg] - 500): 0.0894
